{
  "source": "patent US20160193240A1",
  "about": "“Ulmoside-A: Useful For Prevention Or Cure Of Metabolic Diseases” (COUNCIL OF SCIENTIFIC & INDUSTRIAL RESEARCH, priority 2013, published 2016)",
  "system": "pAMPK, pACC and pP38",
  "assay": "AMPK, ACC and p38 phosphorylation by western blot in C2C12 myotubes",
  "assay_type": "cell-based, mouse",
  "settings": "10 nM",
  "procedure": "A. ULMA induces rapid AMPK and p38MAPK signaling. C2C12 myotubes in 10 cm dishes were treated with vehicle (0.1% vol/vol DMSO; 0 min) or 10 nM ULMA for different time points ranging from 1 min to 24 h (final concentration of DMSO in all wells were 0.1% vol/vol). Following treatment, the cells were washed with ice-cold PBS and then lysed. The total protein was estimated by Bradford assay and equal amount of protein (50 μg) was resolved by denaturing polyacrylamide gel electrophoresis and western blotted to determine pAMPK, pACC and pP38 level. Total AMPK, total ACC or total P38 levels were used as loading controls. Data is representative of three independent experiments displaying identical pattern (right panel depicts densitometry from 3 experiments).\nB. AdipoR1 overexpression enhances ULMA effect on AMPK and p38 MAPK signaling. C2C12 myoblasts growing in T75 flasks were trypsinized and transfected with […] of either empty vector (pcDNA3) or AdipoR1 expression plasmid using lipofectamine LTX transfection reagent and then the cells were plated in 10 cm dishes. 24 h following transfection, cells were incubated in differentiation medium and maintained in the same medium for 96 h when the cells differentiated fully into myotubes. These cells were then treated with vehicle (DMSO) or ULMA (10 nM) for 10 mins. The cells were then lysed and western blotted for the indicated proteins. Data is representative of three independent experiments displaying identical pattern.\nC. Knockdown of AdipoR1 abrogates ULMA effect on AMPK and p38 signalling. C2C12 myotubes in 6 well plates were transfected with 100 nM non-silencing control or AdipoR1 siRNAs using DharmaFECT 1 transfection reagent (Thermo). 72 h following transfection, cells were treated with vehicle (DMSO) or ULMA (10 nM) for 10 min and were western blotted to evaluate pAMPK, pACC, p38, AdipoR1, and R2 status. Total AMPK, ACC, p38 and beta-actin were used as loading controls.\nC2C12 myotubes in 10 cm dishes were treated with vehicle (0.1% DMSO; 0 min) or 10 nM ULMA for different time points ranging from 1 min to 24 hour. Following treatment, the cells were washed with ice-cold PBS and then lysed in lysis buffer [1M NaCl, 50 mM HEPES and 0.1% triton X 100 containing 1× protease inhibitor cocktail and 1× phosphates inhibitor cocktail (Sigma)]. The total protein was estimated by Bradford assay and equal amount of protein (50 μg) was resolved by denaturing polyacrylamide gel electrophoresis and western blotted for determination of pAMPK, pACC and pP38 levels (in all the cases the primary antibodies were used in 1:1000 dilution and all the antibodies were from Cell signaling technology). Total AMPK, ACC and p38 expressions were also detected and used as loading controls (all the antibodies were from Cell signaling technology and were used in 1:1000 dilution). […] To evaluate if AdipoRs are indeed involved in the regulation of these pathways by ULMA, C2C12 myoblasts growing in T75 flasks were trypsinized and transfected with 10 μg of either empty vector (pcDNA3) or AdipoR1 expression plasmid using lipofectamine LTX transfection reagent and then the cells were plated in 10 cm dishes. 24 hours following transfection, cells were incubated in differentiation medium and were maintained in the same medium for 96 hours when the cells fully differentiated into myotubes. These cells were then treated with vehicle (DMSO) or ULMA (10 nM) for 10 min. The cells were then lysed (as mentioned above) and western blotted. […] This was further validated in knockdown experiments where C2C12 myotubes in 6 well plates were transfected with 100 nM non-silencing control or AdipoR1 siRNAs using DharmaFECT 1 transfection reagent (Thermo). 72 hours following transfection, cells were treated with vehicle (DMSO) or ULMA (10 nM) for 10 min and were western blotted to evaluate pAMPK, pACC, pP38, AdipoR1, and R2 status.",
  "data": [
    {"smiles": "O=C1c2c(cc(O)c([C@@H]3O[C@H](CO)[C@@H](O)[C@H](O)[C@H]3O)c2O)O[C@@H](c2ccc(O)c(O)c2)[C@@H]1O", "note": "[ULMA, (2S,3S)-(+)-3′,4′,5,7-tetrahydroxydihydroflavonol-6-C-β-D-glucopyranoside]", "values": [
      {"measurement": "phosphorylation of ACC", "setting": "1 min to 24 hour", "result": "rapid and robust phosphorylation"},
      {"measurement": "phosphorylation of AMPK", "setting": "1 min to 24 hour", "result": "rapid and robust phosphorylation"},
      {"measurement": "phosphorylation of p38", "setting": "1 min to 24 hour", "result": "phosphorylated"},
      {"measurement": "response on AMPK, ACC and p38 phosphorylation with siAdipoR1", "setting": "10 min, 100 nM AdipoR1 siRNA", "result": "completely obliterated ULMA response"},
      {"measurement": "effect on AMPK and p38 MAPK signaling with AdipoR1 overexpression", "setting": "10 min, AdipoR1 expression plasmid vs empty vector", "result": "robust increase in effect of ULMA"},
      {"measurement": "AMPK, ACC and p38 phosphorylation with control siRNA (siC)", "setting": "10 min, non-silencing control siRNA", "result": "phosphorylated AMPK, ACC and P38"}
    ]}
  ]
}
